Reference: patent US10695406B2, “Modulation of cellular stress using a B-cell oxidative and/or endoplasmic reticulum stress inhibitor and a targeting agent” (THE UNIVERSITY OF QUEENSLAND, priority 2014, dated 2020)

How the values were obtained:
[1] = tested on: pneumovirus of mice (PVM); experiment: Pneumovirus (PVM) infection of neonatal mice with IL-22 administration; type: in vivo, C57BL/6 mice
Protocol: Total RNA was extracted from animal tissues by homogenizing in TRIzol and separated via chloroform phase separation. RNA was purified using High Pure RNA isolation kit (ROCHE) as per the manufacturer's instructions, including DNASE treatment. Extraction purity was assessed by NANODROP, ensuring the expected A260/280 value for RNA between 1.8 and 2.0. Reverse transcription was performed on 1 μg of RNA using 5×ISCRIPT reaction mix and ISCRIPT reverse transcriptase (BIORAD). Quantitative, reverse transcription polymerase chain reaction (qRT-PCR) was performed to quantify expression of PVM gene Src homology (SH), using specific exon-spanning primer sequences and amplified with SYBR Premix Ex TAQ II polymerase (TAKARA). All gene expression was quantified in duplicate using a Viia 7 Real Time PCR System (APPLIED BIOSYSTEMS) and relative fold changes were calculated using the 2^−ΔΔCt method, comparing to the mean of naïve uninfected mice after normalizing to the β-actin housekeeping gene ACTB.
Five-day old neonatal C57BL/6 mice were administered intraperitoneal (i.p.) injections of either recombinant mouse IL-22 (rmIL-22) (20 ng/g every three days) [R&D Systems, #582-ML/CF], or an irrelevant IgG1 mock treatment control (12.5 μg/mouse, weekly) [Lilly Pharmaceuticals, LSN2404993]. […]
Paraffin embedded left lobes were sectioned onto Superfrost plus slides. […] This scoring system assessed inflammation in the small airspaces, peribronchiolar interstitial, alveolar interstitial and injury in the airway epithelium. The degree of lung injury and inflammation was scored blindly.
Cells infected by PVM were visualized by immunohistochemistry using rabbit anti-mouse PVM antibody (polyclonal at 1:8000) (ALPHA DIAGNOSTIC, PVMNP14-S). […] PVM infection was quantified by counting number of infected cells in 4-5 bronchioles per mouse and expressed as the number of infected cells per length of bronchiole epithelium. All sections were visualized on a VS120-L100 slide scanner microscope (OLYMPUS) and analyzed using OlyVIA v2.4 (OLYMPUS) and IMAGEJ v1.45s.

[2] = tested on: mice with high fat diet-induced obesity (HFDIO); experiment: HFDIO Experiment 2: 22 weeks of diet, IL-22 for the last 30 days; type: in vivo, C57BL/6 male mice; conditions: for Body weight (% original) / Fasting blood glucose / Fasting serum insulin concentration / Fasting serum proinsulin concentration: HFDIO Experiment 2, 22 weeks on HFD
Text: All mice were housed in sterilized, filter-topped cages in a conventional clean facility. Six to eight week old C57BL/6 male mice were fed ad libitum on a high fat diet containing 46% of available energy as saturated fat, 34% carbohydrate, 20% protein (Speciality feeds, SF04-027). Or on normal chow containing less than 10% saturated fat (GOLDMIX, 126575). Cages of mice were randomly allocated to the experimental groups by random draw. Investigators were not blinded to treatment by there were no subjective assessments made.
Total insulin and proinsulin were measured in supernatant from islet cultures or in serum from mice using commercially obtained ELISA kits from MILLIPORE and MERCODIA, respectively. The molar insulin concentration was determined by subtracting the molar proinsulin concentration from molar total insulin, and then the serum proinsulin:insulin ratio was calculated.
From 18-22 weeks of diet, mice were treated (for 30 days) with 20 or 100 ng/g i.p. recombinant murine IL-22 twice weekly (R&D SYSTEMS) or 0.1 mg/mouse irrelevant isotype control antibody, sacrificed and sampled.
Fasted i.p. glucose tolerance tests (2 g/kg glucose) and insulin tolerance tests (0.25 U/kg insulin; Humalog, Lilly) were performed at the times indicated in the Figure Legends. […]

MIN6N8 cells = experiment: Oxidative stress gene expression (RT2 Profiler PCR array, qRT-PCR) in MIN6N8 cells; type: cell-based, murine; conditions: non-stressed β-cells, 50 ng/mL
Protocol: Tissue samples were snap-frozen, and homogenized in TRIZOL using FASTPREP (MP BIOMEDICAL). RNA was isolated using High Pure RNA isolation kit (ROCHE), followed by cDNA synthesis using iScript (BIORAD) containing oligo(dT) and random hexamers. QPCR SYBR Green (INVITROGEN) was used for quantitative PCR using a HT7900 (ABI SYSTEMS). RoX was used as a normalization reference. Results were analyzed using SDS software (version 2.3) (ABI SYSTEMS). Primer efficiencies were determined using cDNA dilutions and primer dilutions for the genes of interest. All the data was normalized against the housekeeping gene, Gapdh, and expressed as a fold difference to the mean of relevant control samples.
cDNA from MIN6N8 cells treated with DMSO or 50 ng/mL IL-22 was compared using the oxidative stress RT^2 Profiler PCR Array (QIAGEN, PAMM-065Z). Data were analyzed using RT^2 Profiler PCR Array data analysis software.
Experiments to assess ER and/or oxidative stress, and methods of qRT-PCT and/or quantifying gene expression were performed as described for Example 1. Xbp1 splicing is assessed by qRT-PCR, with normalization versus Gapdh, and expression presented as fold of vehicle-treated control cells.

**Q.** What does the source list for “IL-22: interleukin-22; recombinant murine IL-22 (R&D SYSTEMS) in the mouse experiments”?
**A.** mice that died between days 5 and 6 post infection ([1]; 20 ng/g i.p. every three days, 100 PFU PVM): 7/9; increase of PVM gene expression (PCR) ([1]; 5 days post infection): 2.2 fold; lung injury score, times higher ([1]; 5 days post infection): 1.7 times; decrease of serum proinsulin ([2]; 100 ng/g): 97%; islet ER stress (Xbp1 splicing) ([2]; 100 ng/g): Xbp1 splicing indistinguishable from normal chow islets; body weight during treatment ([2]; 20 or 100 ng/g, last 30 days of 22-week HFD): progressively decreased; Body weight (% original) ([2]; 20 ng/g): 188 ± 13 % original; Fasting blood glucose ([2]; 20 ng/g): 11.3 ± 0.5 mmol/L; Fasting serum insulin concentration ([2]; 20 ng/g): 0.7 ± 0.4 ng/mL; Fasting serum proinsulin concentration ([2]; 20 ng/g): 14.1 ± 2.9 pmol/L; Body weight (% original) ([2]; 100 ng/g): 189 ± 17 % original; Fasting blood glucose ([2]; 100 ng/g): 10.6 ± 1.3 mmol/L; Fasting serum insulin concentration ([2]; 100 ng/g): 0.5 ± 0.3 ng/mL; Fasting serum proinsulin concentration ([2]; 100 ng/g): 4.7 ± 1.8 pmol/L; time until random fed blood glucose decreased to levels of normal chow fed mice ([2]; both doses (20 and 100 ng/g)): ≤ 7 days; insulin resistance in ITT ([2]; day 16 of therapy): no or modest improvement in insulin resistance; serum total insulin during IPGTT ([2]; day 25): complete suppression of fasting hyperinsulinemia and normalization of GSIS; glycemic control in IPGTT ([2]; day 25 of therapy): glycemic control indistinguishable from control non-obese mice; insulin resistance in ITT ([2]; day 29, both doses): insulin resistance had decreased; serum proinsulin:insulin ratio ([2]; end of treatment): normalization of the serum proinsulin:insulin ratio; proinsulin secretion by islets ex vivo ([2]; islets from HFD mice treated in vivo, glucose/GLP-1): reduced in a dose-dependent manner; islet expression of anti-oxidant genes and Nos2 ([2]; islets from HFDIO mice treated in vivo): further increased expression of anti-oxidant genes and suppressed Nos2; insulin secretion in response to glucose by islets ex vivo ([2]; islets from obese mice treated for 30 days): correction of insulin hyper-secretion in response to glucose; pathology in skin, intestine or liver ([2]; up to 100 μg/kg for up to 30 days): no pathology was observed in the skin, intestine or liver; expression of antioxidant genes Gpx5, Prdx5, Sod2 (also Ptgs1, Ptgs2, Cyba) (MIN6N8 cells): upregulated the antioxidant genes; expression of oxidative stress inducing genes Nos2, Hsp90ab1, Fth1 (MIN6N8 cells): down-regulates three key oxidative stress inducing genes
